Source: a melting point compilation (Tetko et al.; mined from patent text by program, amines drawn as free bases though some values may be those of a salt)

| Structure (SMILES) | melting point [°C] |
| --- | --- |
| CCCc1c(OCCCCCCc2cccc(OCCCCCC(=O)O)c2CCC(=O)O)ccc2c1CCCC2=O | 100 to 101 |
| CCCCc1ncc(/C=C(\Cc2cccs2)C(N)=O)n1Cc1ccc(C(N)=O)cc1 | 204 to 206 |
| CN(C)Cc1cccc(C(F)(F)C(F)(F)c2ccccc2)c1CN | 71 to 83 |
| NC[C@H](O)c1ccc2nnnn2c1 | 153 to 154 |
| O=C1OC2(CCCCC2)OC(=O)C12CC2 | 134 to 135 |
| O=C(c1ccccc1)c1cnc2c(-c3cc(-c4ccccc4)cs3)cnn2c1O | 277 to 290 |
| CCCCNc1c([N+](=O)[O-])cc(C)cc1[N+](=O)[O-] | 52 |
| CC#CCn1nc(-c2ccc(F)cc2)c(-c2ccc(S(C)(=O)=O)cc2)cc1=O | 81 to 82 |
| NC1CCN(c2c(F)cc3c(=O)c(C(=O)O)cn(C4CC4)c3c2F)C1 (configuration not stated) | 290 to 292 |
| N#Cc1ccc(-c2c3c(cc4ccc(O)cc24)-c2ccc(O)cc2CO3)cc1 | > 250 |
| Nc1cc(-n2cc(C(=O)O)c(=O)c3cc(F)c(N4CC(N)C4)c(Cl)c32)cnc1Cl | 280 |
| CC(=O)NC(CC(=O)O)CN(C)C (configuration not stated) | 202 |
| CC(=O)NCC1CC1c1c(-c2ccccc2)ccc2nn(C)cc12 (configuration not stated) | 156 to 158 |
| N#Cc1ccc(NC(=O)c2cccc(OCc3ccc(F)cc3)c2)nc1 | 170 to 171 |
| CN1Cc2ccccc2[C@H]2c3cccc4[nH]cc(c34)C[C@@H]21 (relative stereo) | 215 |
| O=C(CC1CCCCC1)N(O)Cc1ccccc1 | 83 to 85 |
| COc1ccccc1CN[C@H]1CCCN(CCCCCCCc2ccccc2)[C@H]1c1ccccc1 (relative stereo) | 67 to 77 |
| CCc1nc(OC)c(NC(=O)N2CCN(c3cc(Cl)cc(Cl)c3)CC2)cc1C(=O)Nc1cc(CO)cc(Nc2c3ccccc3nc3ccccc23)c1 | 210 to 212 |
| Cc1c(SCCN2CCOCC2)ccnc1CSc1nc2ccccc2n1CC(N)=O | 178 to 180 |
| N#Cc1ccccc1C(F)(F)C(F)(F)c1ccc(F)cc1 | 90 to 93 |
| O=S(=O)(c1cc(Cl)cc(Cl)c1)c1nnc(C(F)(F)F)s1 | 123 |
| O=S(=O)(c1ccc2c(Cl)cccc2c1)N1CC2CC1CO2 (configuration not stated) | 132 to 133 |
| C=CCn1c(=O)n(S(=O)(=O)c2ccc(Cl)cc2)c(=O)c2ccc(Cl)cc21 | 161 to 163 |
| CCOC(=O)Nc1sc(C)c(C#N)c1S(=O)(=O)NC(=S)NC(C)C | 169 to 171 |

Further lines, results first:

| melting point [°C] | Structure (SMILES) |
| --- | --- |
| 92 to 93.5 | CC(Oc1ccc(Oc2ncc(Cl)cc2F)cc1)C(=O)Nc1ccc(OC(F)(F)F)cc1 (configuration not stated) |
| 188 to 190 | Cc1c(NC(=O)CC(C)(C)C)c(C)c2c(c1-c1ccc[nH]1)OCC2c1ccc(C(C)C)cc1 (configuration not stated) |
| 141 to 143 | COc1ccc(COc2cccnc2NC(=N)Nc2ccccc2)cc1 |
| 60 to 62 | C=Cc1cc(C(C)NC(=O)Nc2ccc(C(C)(C)C)cc2)ccc1NS(=O)(=O)C=C (configuration not stated) |
| 220 to 222 | Clc1cccc(Nc2ncnc3[nH]nc(NCc4ccc5c(c4)OCO5)c23)c1 |
| 49 to 51 | CC(C)[C@H](CO)Cc1ccc(C(C)(C)C)cc1 |
| 39 to 44 | COc1ccc(C2=NN(C3CCN(CCCCCCN4C(=O)c5ccccc5C4=O)CC3)C(=O)[C@@H]3CC=CC[C@H]23)cc1OC |
| 120 to 141 | CCC(=O)Nc1cccc(C2(c3cc(C(=O)CC)n(CC)c3)N=C(N)N(C)C2=O)c1 (configuration not stated) |
| 48 to 49 | C=CCOc1ccc(F)cc1-c1ccccc1-c1ccccc1 |
| 95 to 100 | COc1ccc(Oc2c(C)cc(N)cc2C)cc1C(C)C |
| 266 to 268 | CC(=O)ONC(=N)c1ccc(-c2ccc(-c3ccc(C(=N)NOC(C)=O)nc3)o2)cc1 |
| 101 | CCCc1cc(C(O)(CC)CC)ccc1-c1cc(OCc2ccc(CO)c(CO)c2)ccc1CC |
| 119 to 121 | Cc1c(NC(=O)CC(C)(C)C)cc2c(c1C)OC(C)(C)C2(O)c1ccc(C(C)C)cc1 (configuration not stated) |
